# Data taken from patent US9371265B2, “Compositions and methods related to inhibitors of JAK kinase” (EP PHARMA, INC., priority 2012, dated 2016).
# Assays:
# CHEK1 = CHEK1 (Homo sapiens, UniProt O14757); assay: Kinase panel: CHEK1; type: biochemical; conditions: 10 μM EP009
# Procedure: (§1) Achieving JAK3 selectivity remains a significant challenge in the development of new small molecules for the treatment of cancer and immune-derived diseases. As such, the inventors employed cell-based screening assays of small-molecule libraries based upon the chemical scaffold of the established JAK3 inhibitor NC1153 (Stepkowski et al., J Immunol. (2005), 175(7):4236-4246) EP009 (FIG. 2A) was selected as a lead compound due to improved intrinsic stability (>95% purity in various solvents at 37° C. for 24 hours; FIG. 3) and high-degree of JAK3 selectivity. To test JAK3 versus JAK2 specificity of EP009, the IL-2/JAK3-dependent Kit225, and IL-3/JAK2-dependent BaF/3 cell lines were used. Kit225 and BaF/3 cells growing in the presence of IL-2 or IL-3, respectively, were treated with ascending concentrations of EP009 for 12 hours and cellular JAK3 and JAK2 tyrosine phosphorylation levels detected by Western blot analysis (FIGS. 2B and 2C). Following densitometric analysis, EP009 was determined to dose-dependently reduce IL-2-mediated JAK3 tyrosine phosphorylation with a cellular 50% inhibitory concentration (IC50) between 10 and 20 μM (FIG. 2B). […] To globally evaluate specificity, the inhibitory activity of EP009 was measured against a panel of protein kinases distributed throughout the kinome using the scanEDGE profiling service (KINOMEscan). […]
# HEPG2 = HEPG2 cell viability (MTS); type: cell-based, human; conditions: 72 hours, concentrations giving complete loss of JAK3-dependent cell viability (0-10 μM)
# Procedure: FIGS. 2A-2F. Selective inhibition of JAK3 by EP009 results in loss of JAK3-dependent tumor cell line viability with no detectable off-target effects in key cell types. (A) Chemical structure of EP009 (M.W. 224.34). (B) Kit225 or (C) BaF/3 cells cultured in the presence of IL-2 or IL-3, respectively, were treated with vehicle (PBS; lane a) or increasing amounts of EP009 (0-50 μM; lanes b-h) for 12 hours. Cells were then lysed, clarified, and immunoprecipitated (IP) with anti-JAK3 (α-JAK3) or anti-JAK2 (α-JAK2), and subjected to Western blot (WB) analysis with anti-phosphotyrosine (α-pY). Blots were stripped and reprobed with corresponding antibody to verify equivalent protein loading. […] (E) Kit225 or BaF/3 cells were cultured with increasing amounts of EP009 (0-10 μM) for 72 hours and cell viability measured with the MTS tetrazolium salt assay. Values represent mean absorbance (OD490-OD650 nm) normalized to vehicle (PBS) treated control cells, while error bars represent the standard deviation (n=3). (F) HEK293, HEPG2, or naïve primary human PBMCs were cultured with increasing amounts of EP009 (0-10 μM) for 72 hours and cell viability measured with the MTS tetrazolium salt assay. Values represent mean absorbance (OD490-OD650 nm) normalized to vehicle (PBS) treated control cells, while error bars represent the standard deviation (n=3). […]
# BTK = BTK (Homo sapiens, UniProt Q06187); assay: Kinase panel: BTK; type: biochemical; conditions: 10 μM EP009
# Procedure: as §1
# CREB = assay: Phospho-CREB in SU-DHL-1 cells (Luminex multiplex); type: cell-based, human; conditions: 24 hours
# Procedure: FIGS. 8A-8F. Effect of EP009 on ALCL cells is mediated through selective activation of ERK1/2 and JNK1/2 stress signaling pathways, and inhibition of p70 S6 kinase growth signaling pathways. SU-DHL-1 cells were treated with vehicle (PBS) or increasing amounts of EP009 (0-50 μM) for 24 hours. Cells were then lysed, clarified, and subjected to Luminex multiplex analysis to detect phosphorylated (A) ERK1/2, (B) JNK1/2, (C) p70 S6 kinase, (D) IκBα, (E) CREB, and (F) p38. Values represent mean fluorescence intensity (MFI) normalized to corresponding GAPDH MFI, while error bars represent the standard deviation (n=2). Representative data from two independent experiments are shown. Statistical significance was determined using Student's t-test. (*, p<0.05).
# The MILLIPLEX MAP 8-plex Multi-Pathway Signaling Phosphoprotein kit (Millipore) was used to detect phosphorylated ERK1/2 (Thr185/Tyr187), STAT3 (Ser727), JNK1/2 (Thr183/Tyr185), p70 S6 kinase (Thr412), IκBα (Ser32), STAT5A/B (Tyr694/699), CREB (Ser133), and p38 (Thr180/Tyr182). The MILLIPLEX MAP 5-plex STAT Phosphoprotein kit (Millipore) was used to detect phosphorylated STAT1 (Tyr701), STAT2 (Tyr690), STAT3 (Tyr705), STAT5A/B (Tyr694/699), and STAT6 (Tyr641). The MILLIPLEX MAP Human Apoptosis 3-plex kit (Millipore) was used to detect cleaved PARP, cleaved Caspase 3, and total GAPDH for protein normalization.
# CDK2 = CDK2 (Homo sapiens, UniProt P24941); assay: Kinase panel: CDK2; type: biochemical; conditions: 10 μM EP009
# Procedure: as §1
# Sequence of CHEK1 (O14757 whole entry): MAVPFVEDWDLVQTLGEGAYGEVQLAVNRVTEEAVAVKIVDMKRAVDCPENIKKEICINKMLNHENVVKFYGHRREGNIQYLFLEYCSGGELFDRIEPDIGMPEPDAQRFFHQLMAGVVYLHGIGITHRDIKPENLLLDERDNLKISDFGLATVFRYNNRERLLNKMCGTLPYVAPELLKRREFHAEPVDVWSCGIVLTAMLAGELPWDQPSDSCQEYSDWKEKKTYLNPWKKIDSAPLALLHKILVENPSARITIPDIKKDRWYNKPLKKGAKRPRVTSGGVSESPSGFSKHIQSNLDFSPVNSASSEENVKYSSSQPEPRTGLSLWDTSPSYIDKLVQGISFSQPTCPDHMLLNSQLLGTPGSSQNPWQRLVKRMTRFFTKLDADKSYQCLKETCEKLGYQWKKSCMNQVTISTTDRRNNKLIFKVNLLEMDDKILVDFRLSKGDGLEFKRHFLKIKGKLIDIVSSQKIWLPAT
# Sequence of BTK (Q06187 whole entry): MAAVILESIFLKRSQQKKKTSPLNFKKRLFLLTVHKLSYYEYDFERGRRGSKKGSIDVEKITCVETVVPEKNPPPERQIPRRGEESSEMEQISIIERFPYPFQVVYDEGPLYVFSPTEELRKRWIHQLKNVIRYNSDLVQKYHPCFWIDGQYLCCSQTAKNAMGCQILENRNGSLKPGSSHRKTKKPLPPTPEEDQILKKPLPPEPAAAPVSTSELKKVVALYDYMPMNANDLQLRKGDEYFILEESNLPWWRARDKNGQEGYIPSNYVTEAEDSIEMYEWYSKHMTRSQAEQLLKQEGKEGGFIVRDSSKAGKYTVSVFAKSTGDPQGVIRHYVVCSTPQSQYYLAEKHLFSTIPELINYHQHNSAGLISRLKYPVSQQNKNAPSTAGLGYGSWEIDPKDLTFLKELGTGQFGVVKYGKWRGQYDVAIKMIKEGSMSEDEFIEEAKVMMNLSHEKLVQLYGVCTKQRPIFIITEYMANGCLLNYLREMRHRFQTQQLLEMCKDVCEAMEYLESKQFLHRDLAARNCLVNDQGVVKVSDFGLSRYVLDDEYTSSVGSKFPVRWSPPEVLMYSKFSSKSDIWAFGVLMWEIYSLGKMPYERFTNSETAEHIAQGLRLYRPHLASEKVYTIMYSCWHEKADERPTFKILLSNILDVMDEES
structure (smiles),measurement,setting,value
"C=C1CCCCCCCCCC(CO)C1=O (centres unmarked) [EP009, 2-(Hydroxymethyl)-12-methylenecyclododecanone]",Kinase Activity (% of Control),CHEK1,100 % of Control
same,effect on HEPG2 cell viability,HEPG2,no detectable loss of cell viability
same,Kinase Activity (% of Control),BTK,91 % of Control
same,CREB phosphorylation status,CREB,No statistically significant change
same,Kinase Activity (% of Control),CDK2,98 % of Control
